Assay results taken from PubChem BioAssay (NCI).
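Exposure lasted 48 hours, with cells grown in 96-well plates and compounds tested at five concentrations. GI50 is the concentration that inhibits growth by half. TGI: concentration producing complete growth inhibition.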

Assays:
Assay in all cases: NCI tumour cell line growth inhibition, 48 h
T-47D breast = tested on: T-47D breast
MDA-MB-231 breast = tested on: MDA-MB-231 breast
BT-549 breast = tested on: BT-549 breast
DU-145 prostate = tested on: DU-145 prostate
NCI/ADR-RES ovarian = tested on: NCI/ADR-RES ovarian
MCF7 breast = tested on: MCF7 breast
MDA-MB-435 = tested on: MDA-MB-435

Row | Structure (SMILES) | GI50 (T-47D breast) [µM] | TGI (T-47D breast) [µM] | GI50 (MDA-MB-231 breast) [µM] | TGI (MDA-MB-231 breast) [µM] | GI50 (BT-549 breast) [µM] | TGI (BT-549 breast) [µM] | GI50 (DU-145 prostate) [µM] | TGI (DU-145 prostate) [µM] | GI50 (NCI/ADR-RES ovarian) [µM] | TGI (NCI/ADR-RES ovarian) [µM] | GI50 (MCF7 breast) [µM] | TGI (MCF7 breast) [µM] | GI50 (MDA-MB-435) [µM] | TGI (MDA-MB-435) [µM]
1 | COc1ccc(OC(=O)O[C@H]2[C@H](O[C@H]3[C@@H](O)COC(O[C@H]4C[C@H]5[C@@H]6CC=C7C[C@@H](O)CC[C@]7(C)[C@H]6CC[C@]5(C)[C@H]4[C@H](C)C(=O)CCC(C)C)[C@@H]3OC(C)=O)OC[C@@H](O)[C@@H]2O)cc1 (stereo partly specified) | 0.0505 | 19.8 | 0.961 | 18.1 | 0.0185 | 15.2 | 3.53 | 22.7 | 13 | > 100 | 0.0782 | 12.8 | 0.0695 | 0.759
2 | CC[C@H](C)[C@H](NC(=O)[C@H]1CCCCN1C)C(=O)N(C)[C@H](CCc1nc(C(=O)N[C@@H](Cc2ccccc2)C[C@H](C)C(=O)OC)cs1)C(C)C |  |  | 0.36 | 1.8 | 0.177 | 2.48 | 0.351 | > 25 | 1.38 | > 25 | 0.0648 | > 25 | 0.0363 | 0.185
3 | CCCNC(=S)N/N=C(\C)c1ccccn1 | 0.0274 | > 100 | 0.0757 | > 100 | 1.44 | > 100 | 1.1 | > 42.9 | 0.0365 | > 100 | < 0.01 |  | 0.53 | > 100
4 | COc1ccc(C2CC(=O)c3c(O)c(OC)c(OC)c(OC)c3O2)c(O)c1 (stereo unspecified) | 0.113 | 24.6 | 0.997 | 31.7 | 0.221 | 20.5 | 0.25 | 15.9 | 0.0565 | 20.6 | 0.0462 | 15.7 |  | 
5 | O=C(C[C@@H](C(=O)NCc1cccc(C(F)(F)F)c1)N1C(=O)[C@@H](N2C(=O)OC[C@@H]2c2ccccc2)[C@H]1/C=C/c1ccccc1)NC1CCN(Cc2ccccc2)CC1 | 15.7 | 38.9 | 4.02 | 20 | 2.96 | 8.81 | 7.72 | > 100 | > 100 | > 100 | 1.61 | 3.51 | 2.45 | 7.66
6 | CC(=O)[O][Hg][c]1c(C)c(C)c(C)c(C)c1C | 1.36 | 3.74 | 0.552 | 1.31 | 1.16 | 2.38 | 8.79 | 22.8 | 7.17 | 33.4 | 0.843 | 2.13 | 1.5 | 3.09
7 | O=C(O)c1cc(N=Nc2ccc([As](=O)(O)O)cc2)ccc1O |  | > 100 |  | > 100 |  | > 100 |  | > 100 |  | > 100 |  | > 100 |  | > 100
8 | COC(=O)[C@]12CCC(C)(C)C[C@H]1C1=CC[C@@H]3[C@@]4(C)C/C(=C/c5cccnc5)C(=O)C(C)(C)[C@@H]4CC[C@@]3(C)[C@]1(C)CC2 | 2.96 | 28 | 10.2 | 32.2 | 2.56 | 7.93 | 8.86 | > 100 | 6.75 | 32.5 | 3 | 14.7 | 5.05 | 20
9 | COc1cccc(N=Cc2c3ccccc3c(=O)n3c2oc2ccccc23)c1 | > 100 | > 100 | 10.2 | 48.7 | 21.9 | > 100 | 21.8 | > 100 | 11.6 | 64.3 | 4.06 | > 100 | 7.27 | 46.4
10 | CC(C)(C)OC(=O)N(CCCN(CCn1c2c(c3ccccc3c1=O)C(=O)c1ccccc1-2)C(=O)OC(C)(C)C)CCn1c2c(c3ccccc3c1=O)C(=O)c1ccccc1-2 | > 50 | > 50 | > 50 | > 50 | > 50 | > 50 | > 50 | > 50 | > 50 | > 50 | > 50 | > 50 | > 50 | > 50
11 | NCCCCn1c2c(c3ccccc3c1=O)C(=O)c1ccccc1-2 | 0.631 | 6.81 | 0.23 | 0.848 | 0.754 | 2.5 | 0.0131 | 0.498 | 0.709 | 2.54 | < 0.0359 |  | 0.717 | 2.28
12 | COc1cccc(NCc2nnc(Nc3ccc(Cl)cc3)c3ccccc23)c1 | 0.649 | 6.56 | 1.32 | 6.32 | 1.9 | 7.42 | 2.4 | 6.52 | 2.55 | 25 | 0.938 | 6.4 | 0.739 | 4.38
13 | Nc1nccc(-c2c(-c3ccc(F)cc3)ncn2CCCN2CCOCC2)n1 | > 25 | > 25 | > 25 | > 25 | > 25 | > 25 | > 25 | > 25 | > 25 | > 25 | > 21.6 | > 25 | > 25 | > 25
14 | CCCCNC(=O)NS(=O)(=O)c1ccc(N2N=C(c3ccc(C)cc3C)CC2c2ccc(N(C)C)cc2)cc1 (stereo unspecified) | 5.16 | > 100 | 5.36 | 35.6 | 4.11 | 37.1 | 5.75 | 81.1 | 4.12 | > 100 | 2.63 | > 100 | 2.55 | 7.59
15 | COc1ccc(/C(=N/Nc2ccc([N+](=O)[O-])cc2)Sc2cc(Cl)c(C)cc2S(N)(=O)=O)cc1 | 7.16 | 19.2 | 3.04 | 8.21 | 22.2 | 42.3 | 3.8 | 9.77 | 5.42 | 14.1 | 4.84 | 15.6 | 4.67 | 13.3
16 | COc1cc2c3c(n(CCCBr)c(=O)c2cc1OC)-c1ccc(NC(C)=O)cc1C3=O | 1.84 | > 100 | 25.8 | > 100 | 8 | 34.7 | 4.65 | > 100 | 39.4 | > 100 | 1.82 | > 100 | 13.9 | 78.3
